In the supplement of paper PMC10307832:

Tests used:
Assay in all cases: relative viability (nuclei count vs DMSO), 5 days (fraction); higher = more cells survive
A-427 = test system: A-427
Procedure, shortened: (§1)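 Values are medians from duplicate plates. Each reflects relative viability, defined as the nuclei count of treated wells over that of vehicle wells. Lung cancer cell lines in 1536-well plates were pin-tool dosed one day after seeding with one drug alone or with a fixed anchor-drug dose plus five library-drug doses (not always all listed) in √10 steps, then fixed, stained and imaged at 4× after 5 days.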

ABC-1 = test system: ABC-1
Procedure, shortened: as §1

COR-L23 = test system: COR-L23
Procedure, shortened: as §1

ChaGo-K-1 = test system: ChaGo-K-1
Procedure, shortened: as §1

EMC-BAC-2 = test system: EMC-BAC-2
Procedure, shortened: as §1

HARA = test system: HARA
Procedure, shortened: as §1

HCC-15 = test system: HCC-15
Procedure, shortened: as §1

HCC-366 = test system: HCC-366
Procedure, shortened: as §1

HCC-78 = test system: HCC-78
Procedure, shortened: as §1

LC-2-ad = test system: LC-2-ad
Procedure, shortened: as §1

NCI-H1734 = test system: NCI-H1734
Procedure, shortened: as §1

NCI-H1993 = test system: NCI-H1993
Procedure, shortened: as §1

NCI-H2009 = test system: NCI-H2009
Procedure, shortened: as §1

NCI-H2023 = test system: NCI-H2023
Procedure, shortened: as §1

NCI-H2126 = test system: NCI-H2126
Procedure, shortened: as §1

NCI-H2228 = test system: NCI-H2228
Procedure, shortened: as §1

NCI-H23 = test system: NCI-H23
Procedure, shortened: as §1

NCI-H2405 = test system: NCI-H2405
Procedure, shortened: as §1

NCI-H838 = test system: NCI-H838
Procedure, shortened: as §1

SK-LU-1 = test system: SK-LU-1
Procedure, shortened: as §1

UMC-11 = test system: UMC-11
Procedure, shortened: as §1

`Oc1nc(-c2ccc(C(F)(F)F)cc2)nc2c1CSCC2` [XAV939] + CC(C)C[C@H](NC(=O)[C@H](Cc1ccccc1)NC(=O)c1cnccn1)B(O)O [Bortezomib] (partner 0.002 µM) was tested, and the relative viability (A-427; first compound 0.08 µM) was 1.06, the relative viability (A-427; first compound 0.253 µM) was 0.977 and the relative viability (A-427; first compound 0.8 µM) was 0.883. The relative viability (A-427; first compound 2.53 µM) was 0.769, the relative viability (ABC-1; first compound 0.08 µM) was 0.315 and the relative viability (ABC-1; first compound 0.253 µM) was 0.307. The relative viability (ABC-1; first compound 0.8 µM) was 0.254, the relative viability (ABC-1; first compound 2.53 µM) was 0.252 and the relative viability (COR-L23; first compound 0.08 µM) was 1.03. It also gave a relative viability (COR-L23; first compound 0.253 µM) of 0.994, a relative viability (COR-L23; first compound 0.8 µM) of 1.05 and a relative viability (COR-L23; first compound 2.53 µM) of 0.855. It also gave a relative viability (ChaGo-K-1; first compound 0.08 µM) of 0.967, a relative viability (ChaGo-K-1; first compound 0.253 µM) of 0.848 and a relative viability (ChaGo-K-1; first compound 0.8 µM) of 0.981. It also gave a relative viability (ChaGo-K-1; first compound 2.53 µM) of 0.941, a relative viability (EMC-BAC-2; first compound 0.08 µM) of 1.11 and a relative viability (EMC-BAC-2; first compound 0.253 µM) of 0.946. For the same compound, the relative viability (EMC-BAC-2; first compound 0.8 µM) was 0.997, the relative viability (EMC-BAC-2; first compound 2.53 µM) was 0.636 and the relative viability (HARA; first compound 0.08 µM) was 1.35. The relative viability (HARA; first compound 0.253 µM) was 1, the relative viability (HARA; first compound 0.8 µM) was 1.12 and the relative viability (HARA; first compound 2.53 µM) was 1. For the same compound, the relative viability (HCC-15; first compound 0.08 µM) was 1.2, the relative viability (HCC-15; first compound 0.253 µM) was 0.938 and the relative viability (HCC-15; first compound 0.8 µM) was 1.05. It also gave a relative viability (HCC-15; first compound 2.53 µM) of 1.06, a relative viability (HCC-366; first compound 0.08 µM) of 1.12 and a relative viability (HCC-366; first compound 0.253 µM) of 0.991. It also gave a relative viability (HCC-366; first compound 0.8 µM) of 1.01, a relative viability (HCC-366; first compound 2.53 µM) of 1.05 and a relative viability (HCC-78; first compound 0.08 µM) of 0.517. It also gave a relative viability (HCC-78; first compound 0.253 µM) of 0.363, a relative viability (HCC-78; first compound 0.8 µM) of 0.526 and a relative viability (HCC-78; first compound 2.53 µM) of 0.405. The relative viability (LC-2-ad; first compound 0.08 µM) was 1.01, the relative viability (LC-2-ad; first compound 0.253 µM) was 0.919 and the relative viability (LC-2-ad; first compound 0.8 µM) was 0.984. The relative viability (LC-2-ad; first compound 2.53 µM) was 0.887, the relative viability (NCI-H1734; first compound 0.08 µM) was 1.04 and the relative viability (NCI-H1734; first compound 0.253 µM) was 0.907. The relative viability (NCI-H1734; first compound 0.8 µM) was 0.709, the relative viability (NCI-H1734; first compound 2.53 µM) was 0.86 and the relative viability (NCI-H1993; first compound 0.8 µM) was 0.972. For the same compound, the relative viability (NCI-H1993; first compound 2.53 µM) was 0.891, the relative viability (NCI-H2009; first compound 0.08 µM) was 1.17 and the relative viability (NCI-H2009; first compound 0.253 µM) was 0.901. It also gave a relative viability (NCI-H2009; first compound 0.8 µM) of 0.936, a relative viability (NCI-H2009; first compound 2.53 µM) of 0.915 and a relative viability (NCI-H2023; first compound 0.08 µM) of 1.11. It also gave a relative viability (NCI-H2023; first compound 0.253 µM) of 0.785, a relative viability (NCI-H2023; first compound 0.8 µM) of 0.833 and a relative viability (NCI-H2023; first compound 2.53 µM) of 0.792. It also gave a relative viability (NCI-H2126; first compound 0.08 µM) of 1.18, a relative viability (NCI-H2126; first compound 0.253 µM) of 0.984 and a relative viability (NCI-H2126; first compound 0.8 µM) of 1.08. It also gave a relative viability (NCI-H2126; first compound 2.53 µM) of 1.02, a relative viability (NCI-H2228; first compound 0.08 µM) of 1.31 and a relative viability (NCI-H2228; first compound 0.253 µM) of 0.711. For the same compound, the relative viability (NCI-H2228; first compound 0.8 µM) was 1.01, the relative viability (NCI-H2228; first compound 2.53 µM) was 0.861 and the relative viability (NCI-H23; first compound 0.08 µM) was 0.992. For the same compound, the relative viability (NCI-H23; first compound 0.253 µM) was 1.12, the relative viability (NCI-H23; first compound 0.8 µM) was 0.989 and the relative viability (NCI-H23; first compound 2.53 µM) was 0.886. It also gave a relative viability (NCI-H2405; first compound 0.08 µM) of 1.04, a relative viability (NCI-H2405; first compound 0.253 µM) of 0.719 and a relative viability (NCI-H2405; first compound 0.8 µM) of 0.893. The relative viability (NCI-H2405; first compound 2.53 µM) was 0.959, the relative viability (NCI-H838; first compound 0.08 µM) was 0.852 and the relative viability (NCI-H838; first compound 0.253 µM) was 0.683. The relative viability (NCI-H838; first compound 0.8 µM) was 0.893, the relative viability (NCI-H838; first compound 2.53 µM) was 0.527 and the relative viability (SK-LU-1; first compound 0.08 µM) was 1.16. For the same compound, the relative viability (SK-LU-1; first compound 0.253 µM) was 1.13, the relative viability (SK-LU-1; first compound 0.8 µM) was 1.05 and the relative viability (SK-LU-1; first compound 2.53 µM) was 1.39. The relative viability (UMC-11; first compound 0.08 µM) was 0.789, the relative viability (UMC-11; first compound 0.8 µM) was 0.754 and the relative viability (UMC-11; first compound 2.53 µM) was 0.708.
